# Test results from PubChem BioAssay AID1159536 (DiRusso Lab, Biochemistry Department, University of Nebraska, 2015).
# Records with an inconclusive call do not appear. Calls of active or inactive are those of the source. How the calls were made is not given here.
# System: Chlamydomonas reinhardtii, Nile Red lipid fluorescence, 72 h
# Assay: algal triacylglycerol accumulation inducers, dose response, qHTS, Chlamydomonas reinhardtii (AID 1159536)
row,SMILES,EC50
1,Cc1cc(C)c(OCCCCN2CCNCC2)c(C)c1,2.62 µM
2,Cc1ccc(C)c(N2CCN(CC3CC4C=CC3C4)CC2)c1 (stereo unspecified),30.4 µM
3,Clc1ccc(CN2CCCCCC2)cc1,2.05 µM
4,COc1cc(C(=O)Nc2ccc(S(=O)(=O)Nc3ncccn3)cc2)cc(OC)c1OC,30.9 µM (inactive)
5,c1ccc(CN2CCN(C3CCCCC3)CC2)cc1,9.9 µM
6,CCS(=O)(=O)N1CCN(C2CCCCCCC2)CC1,5.99 µM
7,COCCNS(=O)(=O)c1cc(Cl)ccc1OC,2.98 µM (inactive)
8,Cc1ccc(C(=O)c2ccc(N3CCN(C)CC3)c([N+](=O)[O-])c2)cc1,2.59 µM (inactive)
9,CC(=O)N(C1=C(Nc2ccccc2)C(=O)c2ccccc2C1=O)c1ccccc1,15.2 µM (inactive)
10,OC(COc1ccc(Cl)cc1Cl)CN1CCN(Cc2ccccc2)CC1 (stereo unspecified),7.67 µM
11,CCN1CCN(C2CCC(C)CC2)CC1 (stereo unspecified),9.97 µM
12,COc1cc(C)c(CN2CCN(Cc3ccc4c(c3)OCO4)CC2)cc1C,2.04 µM
13,CC(C)(C)C1CCC(NCc2ccncc2)CC1 (stereo unspecified),3.53 µM
14,CC1CCN(S(=O)(=O)c2ccc(NC(=O)c3cccc([N+](=O)[O-])c3)cc2)CC1,2.7 µM
15,Cc1cc(OCCCCN2CCN(C)CC2)cc(C(C)C)c1,1.92 µM
16,CCOc1ccc(CN2CCN(c3ccccc3OC)CC2)cc1,1.32 µM
17,Cc1cccc(-c2cc(NC(=O)c3ccc([N+](=O)[O-])cc3)n[nH]2)c1,6.94 µM
18,O=[N+]([O-])c1ccccc1CN1CCN(CC2CC3C=CC2C3)CC1 (stereo unspecified),11.7 µM (inactive)
19,COc1ccccc1N1CCN(C2CCN(Cc3cccc(Cl)c3)CC2)CC1,10.1 µM
20,CC1CCCCN1S(=O)(=O)c1ccc(NC(=O)c2ccc(Cl)cc2Cl)cc1 (stereo unspecified),2.56 µM (inactive)
21,Oc1ccc(CN2CCN(c3cccc(Cl)c3)CC2)cc1,0.0276 µM

row,SMILES,EC50
1,CC1(C)Oc2ccc(NC(=O)c3ccc(C(=O)c4ccccc4)cc3)cc2O1,8.94 µM (inactive)
2,CCOc1ccc(CN2CCN(c3ccc([N+](=O)[O-])cc3)CC2)cc1,2.64 µM
3,CC(=O)NC1=C(N2CCN(Cc3ccccc3)CC2)C(=O)c2ccccc2C1=O,14.3 µM (inactive)
4,CN1CCC(N(C)Cc2cccc(Oc3ccccc3)c2)CC1,10.1 µM
5,CN1CCN(c2ccc([N+](=O)[O-])c(N3CCCCC3)c2)CC1,10.1 µM
6,COc1ccc(NC(=O)CCC2CCCCC2)c([N+](=O)[O-])c1,6.82 µM
7,C/C(=C\c1ccccc1)CN1CCN(C)CC1,1.01 µM
8,COc1ccc(CN(C)C2CCCCC2)c(C)c1C,0.608 µM
9,O=C1CC(N2CCc3ccccc3C2)C(=O)N1c1ccc([N+](=O)[O-])cc1 (stereo unspecified),15.7 µM (inactive)
10,CC(=O)N(C1=C(N(C)C)C(=O)c2ccccc2C1=O)c1ccc(Cl)c(Cl)c1,2.65 µM (inactive)
11,COc1ccc(OC)c(CNCCc2ccc([N+](=O)[O-])cc2)c1,0.646 µM
12,COc1cc(CN2CCN(Cc3ccc([N+](=O)[O-])cc3)CC2)cc(OC)c1,3.78 µM
13,CCC(C)c1ccccc1OCCOCCN1CCOCC1 (stereo unspecified),13.1 µM
14,Nn1c(SCC(=O)NC23CC4CC(CC(C4)C2)C3)nnc1-c1ccc(Cl)cc1Cl,7.04 µM
15,C1=CC2CC1CC2CN1CCN(Cc2ccco2)CC1 (stereo unspecified),2.52 µM
16,COc1cc(C(=O)Nc2nc3c(s2)CCCC3)cc(OC)c1OC,0.379 µM (inactive)
17,O=C(Nc1cccnc1)c1ccc(S(=O)(=O)c2ccc(Cl)cc2)cc1,6.72 µM (inactive)
18,CC1CN(CC(O)COc2ccc(C(C)(C)C)cc2)CC(C)O1 (stereo unspecified),9.95 µM
19,O=C(O)CCSCC(=O)c1ccc(NS(=O)(=O)c2ccccc2)cc1,30.6 µM (inactive)
20,CC(C)NCC(=O)NC12CC3CC(CC(C3)C1)C2,0.638 µM
21,Cc1cc(C(C)(C)C)ccc1OCCN1CCN(C)CC1,4.43 µM

row,SMILES,EC50
1,O=C(Nc1ccc(Cc2ccncc2)cc1)c1cc(Br)ccc1Cl,2.29 µM (inactive)
2,Clc1ccc(N2CCN(Cc3ccc4c(c3)OCO4)CC2)cc1,1.32 µM
3,COc1ccc(CNC2CCSC2)cc1 (stereo unspecified),0.314 µM
4,c1ccc(N2CCN(CC3CCCCC3)CC2)cc1,1.03 µM
5,CN1CCCN(CC2=CC[C@H]3C[C@@H]2C3(C)C)CC1,10.1 µM
6,CC(C)(Oc1ccc(Cl)cc1)C(=O)N1CCN(c2ccc(F)cc2)CC1,2.13 µM (inactive)
7,c1ccc(CN2CCC(N3CCN(C4CC5CCC4C5)CC3)CC2)cc1 (stereo unspecified),9.98 µM
8,CC(C)NC(=O)c1ccccc1NC(=O)c1ccc(Cl)cc1,0.59 µM (inactive)
9,Cc1ccccc1N1CCN(Cc2ccc(O)cc2)CC1,10 µM
10,Cc1ccc(C)c(N2CCN(C3CCCCCC3)CC2)c1,10 µM
11,O=C1CC(N2CCC(C(O)(c3ccccc3)c3ccccc3)CC2)C(=O)N1c1ccc(F)cc1 (stereo unspecified),13.6 µM (inactive)
12,COc1cccc(N2CCN(Cc3ccsc3)CC2)c1,10 µM
13,Cc1cc(Cl)c(OCCOCCN2CCN(C)CC2)c(Br)c1,3.1 µM
14,C/C=C(\C)CN1CCN(C/C=C/c2ccccc2)CC1,1.28 µM
15,CCN(CC)CC#CCOc1ccccc1,11.6 µM
16,Cc1ccc(N2CCN(C3CCCCCC3)CC2)cc1,0.649 µM
17,CC1CCCN(C(=O)COc2ccc(Cl)cc2)C1 (stereo unspecified),1.26 µM
18,CCC(C)N1CCN(Cc2ccc([N+](=O)[O-])cc2)CC1 (stereo unspecified),10.5 µM
19,Fc1ccc(N2CCN(Cc3ccccc3)CC2)cc1,1.37 µM
